In paper PMC8282722 (Current biology : CB, 2021):

Target: T1, GFP-Rab34 (LAP-Rab34) (Homo sapiens, UniProt Q9BZG1)
T1 sequence (Q9BZG1 1-259): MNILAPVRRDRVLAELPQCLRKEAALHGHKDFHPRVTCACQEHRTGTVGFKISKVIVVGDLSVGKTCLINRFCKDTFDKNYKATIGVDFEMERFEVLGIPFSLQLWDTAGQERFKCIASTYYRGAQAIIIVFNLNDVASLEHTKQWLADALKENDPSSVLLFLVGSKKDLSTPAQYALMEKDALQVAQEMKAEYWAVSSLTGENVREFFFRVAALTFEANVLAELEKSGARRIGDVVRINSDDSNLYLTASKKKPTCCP
Format: cell-based
Conditions: labelled compound; HEK293T cells; 10 mM MgCl2 in lysis buffer

- 32P metabolic labelling in cells, anti-GFP immunoprecipitation, TLC of bound nuc: wildtype Rab34 was mostly GDP-bound
Structure (SMILES): Nc1nc2c(ncn2[C@@H]2O[C@H](COP(=O)(O)OP(=O)(O)O)[C@@H](O)[C@H]2O)c(=O)[nH]1 [GDP]
